We go through 4 compounds from PubChem BioAssay (NCI).

Test in all cases: NCI anticancer screen, dose series, 48 h
Assay [1] has as its system NCI-H23 lung.
The test system of assay [2] is K-562 leukemia.
The test system of assay [3] is COLO 205 colon.
Assay [4] has as its system TK-10 renal.
The subject of assay [5] is UACC-62 melanoma.
For assay [6], the system named is EKVX NSCLC.
The subject of assay [7] is 786-0 renal.
For assay [8], the system named is HOP-62 NSCLC.
Assay [9] has as its system PC-3 prostate.
The test system of assay [10] is MDA-MB-231 breast.

Structures are written as SMILES.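 Cultured in 96-well plates, cells were exposed to test compound for 48 hours across five concentrations. GI50 is the concentration that inhibits growth by half. TGI: total growth inhibition.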

Regarding `COc1cc(C2Cc3ncccc3-c3[nH]c(=O)c4cccnc4c32)cc(OC)c1OC` (stereo not given), the GI50 in assay [1] is 0.999 µM; in assay [2] it was 0.313 µM; in [3], 0.332 µM; in [4] it was over 100 µM; in [5] it was 0.463 µM; in assay [6], 3.21 µM. The GI50 in assay [7] was 1.41 µM; in [8], 0.396 µM; in [9], 0.513 µM; in assay [10], 3.88 µM. Besides, the TGI is over 100 µM in assay [1]; over 100 µM in assay [2]; 1.27 µM in assay [3]; over 100 µM in assay [4]; over 100 µM in assay [5]; over 100 µM in assay [6]. The TGI was over 100 µM in assay [7], over 87.4 µM in [8], over 100 µM in assay [9] and over 100 µM in assay [10].

Regarding `O=S(=O)(NCCCNc1nccc(-c2c(-c3ccc(O)cc3)nc3sccn23)n1)c1ccc(F)cc1`, the GI50 in assay [1] is 2.24 µM; in [2], 1.67 µM; in assay [3], 0.0527 µM; in [4], 4.48 µM; in assay [5], 0.0245 µM; in assay [6], 2.91 µM. The GI50 in assay [7] was 3.22 µM; in [8], 3.67 µM; in assay [9], 3.11 µM; in assay [10], 1.82 µM. Further, the TGI is 7.7 µM in [1]; over 100 µM in assay [2]; 2.19 µM in assay [3]; 32.2 µM in assay [4]; 1.33 µM in assay [5]; 9.02 µM in assay [6]. The TGI in assay [7] was over 100 µM; in [8] it was 14.9 µM; in assay [9] it was 29 µM; in [10] it was over 100 µM.

Regarding `Cc1cc(S(=O)(=O)Nc2nc3ccccc3o2)c(SCc2ccccc2)cc1Cl`, the GI50 in assay [1] was 19 µM; in [2], 31.8 µM; in assay [3], 22.1 µM; in assay [4] it was 28.6 µM; in [5], 28.7 µM; in [6] it was 21.9 µM. Besides, the GI50 in [7] is 20.8 µM; in assay [8], 28.5 µM; in [9], 16.1 µM; in assay [10], 35.9 µM. The TGI was 40.3 µM in assay [1]; over 100 µM in [2]; 51.1 µM in assay [3]; 90.7 µM in assay [4]; 79.5 µM in assay [5]; 55.8 µM in [6]. Besides, the TGI in [7] is 47.2 µM; in assay [8], over 100 µM; in [9], 30.5 µM; in [10], 90.5 µM.

As to `CCSCC1CC(O)(c2ccccc2)CC(c2ccc(F)cc2)O1` (stereo not given), the GI50 was 2.1 µM in [1]; 1.83 µM in assay [2]; 1.53 µM in assay [3]; 2.16 µM in assay [4]; 1.42 µM in assay [5]; 2.13 µM in [6]. Further, the GI50 in assay [7] was 2.02 µM; in assay [8], 1.75 µM; in assay [9] it was 1.82 µM; in assay [10], 1.98 µM. The TGI in assay [1] is 5.28 µM; in assay [2], 3.93 µM; in assay [3], 2.87 µM; in assay [4], 6.13 µM; in assay [5] it was 3.2 µM; in [6], 6.04 µM. Further, the TGI in [7] was 4.53 µM; in assay [8], 3.29 µM; in [9], 4.89 µM; in assay [10] it was 4.39 µM.
